# US20260159536A1, “AKR1C3-ACTIVATED DNA ALKYLATING AGENT, AND MEDICAL APPLICATION THEREOF” (ASCENTAWITS PHARMACEUTICALS, LTD., priority 2021, published 2026)
# Assays:
# MHCC97H = assay: Cytotoxicity on hepatocellular carcinoma cell line MHCC97H; type: cell-based
# Description: (§1) If not otherwise specified, IC50 values were measured by the following experimental methods:
# (§2) a) Cells were plated for 24 hours, and then the compounds acted singly. 99 μL of growth medium was supplemented per well, and then 1 μL of 200× compound was added, gently shaken to ensure uniform mixing, and then placed in a 37° C., 5% CO2 incubator.
# (§3) b) The cell plate was placed in the incubator for 72 hours.
# (§4) b) 100 μL of CTG reagent (CelltiterGlo kit) was added to each well, the plate was placed in a rapid oscillator and shaken for 2 minutes, and then placed at room temperature for 30 minutes away from light.
# (§5) The IC50 was calculated using GraphPad Prism 8 software and the IC50 (half inhibitory concentration) of the compounds was obtained using the following non-linear fitting formula: […]
# (§6) Using the same experimental methods as described above, Compounds A, B and C were further tested for cytotoxicity against different hepatocellular carcinoma (HCC) cell lines SNU354, SNU886, MHCC97H and huH-1, and the results were shown in Table 2 below: […]
# [1] = test system: HuPrime model PA1222 human pancreatic cancer; assay: In vivo pharmacodynamics, pancreatic cancer PA1222 PDX model; conditions: for Tumor volume: 10 mg/kg i.v.
# Description: The test was divided into groups of test drug Gemcitabine 120 mg/kg group, test drug Compound A 10 mg/kg and 7.5% anhydrous ethanol+7.5% polyoxyethylene (35) castor oil+85% glucose injection DSW (pH 7.4) vehicle control group, a total of 3 groups, with 5 mice per group. […] Test drug Gemcitabine (Gemcitabine) 120 mg/kg group was administered intraperitoneally, once a week for three consecutive weeks.
# [2] = MTD assay and toxicokinetics of Compound A, single 30 min intravenous infusion
# SNU354 = assay: Cytotoxicity on hepatocellular carcinoma cell line SNU354; type: cell-based
# Description: as §1, §2, §3, §4, §5, §6
# [3] = test system: human lung cancer NCI-H460-Luc2 cells (intracranial); assay: In vivo pharmacodynamics, NCI-H460-Luc2 intracranial inoculation CDX model; set-up: species or system BALB/c nude mice; conditions: for Bioluminescence Value (Day 11) / T/C (%) / TGI (%): i.v. QWx3, Day 11
# Description: The experiment was divided into groups of test drug Paclitaxel 20 mg/kg group, Compound A 2 mg/kg, 4 mg/kg and 8 mg/kg groups and 10% ethanol+10% polyoxyethylene castor oil+80% glucose injection DSW (pH 7.42) vehicle control group (Vehicle group), with 6 mice per group. […] The positive drug Paclitaxel 20 mg/kg group was administered by intraperitoneal injection and administered once a week for 3 weeks.
# The pharmacodynamic analysis of each group in the human NCI-H460-luc intracranial inoculation model was performed based on the measured bioluminescence values on day 11 after administration, and the results were shown in Table 14.
# [4] = test system: human lung cancer NCI-H460 cells; assay: In vivo pharmacodynamics, NCI-H460 subcutaneous xenograft model; set-up: species or system BALB/c nude mice; conditions: Day 31
# Description: BALB/c nude mice were subcutaneously inoculated with human lung cancer NCI-H460 cells to establish a subcutaneous transplantation tumor model of human lung cancer.
# The pharmacodynamic analysis of each group in the NCI-H460 CDX model was performed on Day 31 after tumor cell inoculation, and the results were shown in Table 10.
# [5] = Plasma stability test, human; type: in vitro ADME; conditions: 37° C.
# Description: The pH of the plasma was checked and recorded. Note: a.
# The final concentration of solvent was 0.5%.
# The assay was performed in duplicate. […] The tubes were mixed by vortex for 5 minutes.
# [6] = test system: human liver cancer LI6652; assay: In vivo pharmacodynamics, liver cancer LI6652 subcutaneous xenograft PDX model; set-up: species or system BALB/c nude mice; conditions: 5 mg/kg i.p. QDx5, 2 days off, 2 weeks off, 2 cycles; Day 28
# [7] = test system: HuPrime model LU0884 human lung cancer; assay: In vivo pharmacodynamics, lung cancer LU0884 PDX model; set-up: species or system BALB/c nude mice; conditions: for T/C (%) / TGI (%) / Relative tumor volume (x ± S) / Tumor volume (x ± S): QWx3, i.v.; for Relative tumor volume (x ± S) / Tumor volume (x ± S): mean ± standard error; for Tumor volume (x ± S): in mm³ (unit assumed)
# [8] = Paclitaxel 20 mg/kg, Compound A 2.5, 5, 10 mg/kg
compound,measurement,setting,value
O=[N+]([O-])c1ccc(C(OP(=O)(N2CC2)N2CC2)C(F)(F)F)cc1Oc1ccc(-c2ccc(F)cc2)c(F)c1 (racemic) [Compound A],IC50,MHCC97H; Homo sapiens,396 nM
same,ratio A/B,MHCC97H; IC50 ratio,1.63
same,ratio A/C,MHCC97H; IC50 ratio,0.70
same,toxic side effects (body weight change),[1]; 10 mg/kg i.v. QWx3,without toxic side effects
same,Tumor volume,[1]; Day 0,111.50 mm^3
same,Tumor volume,[1]; Day 3,117.62 mm^3
same,Tumor volume,[1]; Day 7,113.91 mm^3
same,Tumor volume,[1]; Day 10,107.17 mm^3
same,Tumor volume,[1]; Day 14,66.08 mm^3
same,Tumor volume,[1]; Day 17,42.94 mm^3
same,Tumor volume,[1]; Day 21,23.22 mm^3
same,Tumor volume,[1]; Day 24,21.20 mm^3
same,Tumor volume,[1]; Day 28,12.51 mm^3
same,Relative tumor volume (x ± S),"[1]; 10 mg/kg, QWx3, i.v., Day 28",0.10 ± 0.04
same,T/C (%),"[1]; 10 mg/kg, QWx3, i.v., Day 28",2.86%
same,TGI (%),"[1]; 10 mg/kg, QWx3, i.v., Day 28",97.14%
same,Tumor volume (x ± S),"[1]; 10 mg/kg, QWx3, i.v., Day 28",12.51 ± 5.25
same,exposure,"[2]; 1, 3, 6 mg/kg",dose proportional
same,survival,"[2]; 1, 3, 6 mg/kg, until planned dissection",all animals survived
same,MTD at 14 days,"[2]; both, monkey (machins), in vivo, iv",> 6 mg/kg
same,clearance,"[2]; both, monkey (machins), plasma, iv",22.3 to 45.3 mL/min/kg
same,clinical observation,"[2]; females, 3 mg/kg and 6 mg/kg",slight erythema at the site of the administration
same,clinical observation,"[2]; males and females, 6 mg/kg",Soft stools
same,IC50,"SNU354; Homo sapiens, SNU-354",962 nM
same,ratio A/B,SNU354; IC50 ratio,1.28
same,ratio A/C,SNU354; IC50 ratio,0.63
same,Bioluminescence Value (Day 11),[3]; 2 mg/kg,7.62 ± 2.10 ×10^5 photon/second
same,T/C (%),[3]; 2 mg/kg,0.24%
same,TGI (%),[3]; 2 mg/kg,99.80%
same,Bioluminescence Value (Day 11),[3]; 4 mg/kg,1.62 ± 0.30 ×10^5 photon/second
same,T/C (%),[3]; 4 mg/kg,0.05%
same,TGI (%),[3]; 4 mg/kg,100.03%
same,Bioluminescence Value (Day 11),[3]; 8 mg/kg,1.78 ± 0.42 ×10^5 photon/second
same,T/C (%),[3]; 8 mg/kg,0.06%
same,TGI (%),[3]; 8 mg/kg,100.03%
same,body weight change,"[3]; 2, 4, 8 mg/kg i.v.",little change
same,T/C (%),"[4]; 10 mg/kg, QWx3, i.v.",8.94%
same,Tumor volume (x ± S),"[4]; 10 mg/kg, QWx3, i.v., in mm³ (unit assumed)",164.13 ± 34.01
same,Tumor volume,[4]; 15 mg/kg i.v.,125.90 mm^3
same,Relative tumor volume (x ± S),"[4]; 15 mg/kg, QWx3, i.v.",0.92 ± 0.22
same,TGI (%),"[4]; 15 mg/kg, QWx3, i.v.",93.06%
same,Percentage remaining after 2 hours in plasma,"[5]; Human plasma, 5 μM",60.06%
same,remained in plasma after 2 hours,[5]; human plasma,60.06%
same,TGI (%),[6],99.86%
same,T/C (%),"[7]; Compound A 2.5 mg/kg, Day 28",57.85%
same,TGI (%),"[7]; Compound A 2.5 mg/kg, Day 28",42.15%
same,Relative tumor volume (x ± S),"[7]; Compound A 2.5 mg/kg, Day 28",3.47 ± 0.56
same,Tumor volume (x ± S),"[7]; Compound A 2.5 mg/kg, Day 28",360.43 ± 44.42
same,T/C (%),"[7]; Compound A 5 mg/kg, Day 28",43.62%
same,TGI (%),"[7]; Compound A 5 mg/kg, Day 28",56.38%
same,Relative tumor volume (x ± S),"[7]; Compound A 5 mg/kg, Day 28",2.61 ± 0.94
same,Tumor volume (x ± S),"[7]; Compound A 5 mg/kg, Day 28",291.60 ± 103.85
same,T/C (%),"[7]; Compound A 10 mg/kg, Day 28",63.02%
same,TGI (%),"[7]; Compound A 10 mg/kg, Day 28",36.98%
same,Relative tumor volume (x ± S),"[7]; Compound A 10 mg/kg, Day 28",3.78 ± 1.19
same,Tumor volume (x ± S),"[7]; Compound A 10 mg/kg, Day 28",434.80 ± 160.03
same,Size of tumor volume,"[7]; Group 4, Compound A 2.5 mg/kg, Day 0",109.86 mm^3
same,Size of tumor volume,"[7]; Group 4, Compound A 2.5 mg/kg, Day 4",138.21 mm^3
same,Size of tumor volume,"[7]; Group 4, Compound A 2.5 mg/kg, Day 7",177.96 mm^3
same,Size of tumor volume,"[7]; Group 4, Compound A 2.5 mg/kg, Day 11",194.38 mm^3
same,Size of tumor volume,"[7]; Group 4, Compound A 2.5 mg/kg, Day 14",216.81 mm^3
same,Size of tumor volume,"[7]; Group 4, Compound A 2.5 mg/kg, Day 18",261.94 mm^3
same,Size of tumor volume,"[7]; Group 4, Compound A 2.5 mg/kg, Day 21",287.79 mm^3
same,Size of tumor volume,"[7]; Group 4, Compound A 2.5 mg/kg, Day 25",328.61 mm^3
same,Size of tumor volume,"[7]; Group 4, Compound A 2.5 mg/kg, Day 28",360.43 mm^3
same,Size of tumor volume,"[7]; Group 5, Compound A 5 mg/kg, Day 0",110.67 mm^3
same,Size of tumor volume,"[7]; Group 5, Compound A 5 mg/kg, Day 4",173.28 mm^3
same,Size of tumor volume,"[7]; Group 5, Compound A 5 mg/kg, Day 7",221.81 mm^3
same,Size of tumor volume,"[7]; Group 5, Compound A 5 mg/kg, Day 11",229.45 mm^3
same,Size of tumor volume,"[7]; Group 5, Compound A 5 mg/kg, Day 14",236.47 mm^3
same,Size of tumor volume,"[7]; Group 5, Compound A 5 mg/kg, Day 18",260.75 mm^3
same,Size of tumor volume,"[7]; Group 5, Compound A 5 mg/kg, Day 21",271.59 mm^3
same,Size of tumor volume,"[7]; Group 5, Compound A 5 mg/kg, Day 25",289.40 mm^3
same,Size of tumor volume,"[7]; Group 5, Compound A 5 mg/kg, Day 28",291.60 mm^3
same,Size of tumor volume,"[7]; Group 6, Compound A 10 mg/kg, Day 0",109.04 mm^3
same,Size of tumor volume,"[7]; Group 6, Compound A 10 mg/kg, Day 4",202.09 mm^3
same,Size of tumor volume,"[7]; Group 6, Compound A 10 mg/kg, Day 7",257.40 mm^3
same,Size of tumor volume,"[7]; Group 6, Compound A 10 mg/kg, Day 11",283.55 mm^3
same,Size of tumor volume,"[7]; Group 6, Compound A 10 mg/kg, Day 14",293.14 mm^3
same,Size of tumor volume,"[7]; Group 6, Compound A 10 mg/kg, Day 18",343.92 mm^3
same,Size of tumor volume,"[7]; Group 6, Compound A 10 mg/kg, Day 21",359.85 mm^3
same,Size of tumor volume,"[7]; Group 6, Compound A 10 mg/kg, Day 25",411.01 mm^3
same,Size of tumor volume,"[7]; Group 6, Compound A 10 mg/kg, Day 28",434.80 mm^3
same,tolerability,[7]; [8],well tolerated
same,tumor inhibitory effect,[7]; [8],certain tumor inhibitory effects
